{
  "source": "patent US7250428B2",
  "about": "“Cetylpyridinium salt of an anti-inflammatory agent and pharmaceutical compositions containing it” (Aziende Chimiche Riunite Angelini Francesco A.C.R.A.F. …, priority 2003, dated 2007)",
  "assay": "stability in the presence of water",
  "type": "physicochemical",
  "data": [
    {"smiles": "CCCCCCCCCCCCCCCC[n+]1ccccc1.O=C([O-])Cc1ccccc1Nc1c(Cl)cccc1Cl", "note": "[cetylpyridinium salt of diclofenac, cetylpyridinium (1-hexadecylpyridinium) salt of diclofenac]", "values": [
      {"measurement": "stability in the presence of water", "value": "virtually infinite"}
    ]}
  ]
}
